From US7842470B2, “Method for pharmacoperones correction of GnRHR mutant protein misfolding” (Oregon Health & Science University, priority 2001, dated 2010)
Substitutions are numbered along the chain they refer to.

Tests used:
mutant GnRHR = biological target: T1, mutant GnRHR (Homo sapiens, UniProt P30968, E90K); experiment: Pharmacological rescue of GnRHR mutants (Example 1), IP production and agonist binding; format: cell-based
T1 construct: expressed in transfected cells; host or cells: COS-7
T1 sequence (P30968 1-328 E90K): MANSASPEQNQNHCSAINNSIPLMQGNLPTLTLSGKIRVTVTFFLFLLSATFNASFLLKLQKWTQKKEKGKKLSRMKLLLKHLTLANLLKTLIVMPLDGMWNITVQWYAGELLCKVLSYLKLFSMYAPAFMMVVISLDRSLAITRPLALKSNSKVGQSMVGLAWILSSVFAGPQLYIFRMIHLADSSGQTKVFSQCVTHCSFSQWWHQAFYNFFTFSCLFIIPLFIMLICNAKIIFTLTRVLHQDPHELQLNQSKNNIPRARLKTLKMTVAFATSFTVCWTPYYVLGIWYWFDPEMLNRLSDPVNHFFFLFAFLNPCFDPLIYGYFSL
Experimental: WT and mutant hGnRHR were separately transiently expressed in COS-7 cells using standard molecular biology methods (Leaños-Miranda et al., J. Clin. Endo. Metab., 87:4825-8, 2002). Briefly, cells were maintained in growth medium (DMEM) containing 10% fetal calf serum (FCS; Life Technologies, Grand Island, N.Y.) and 20 μg/ml gentamicin (Gemini Bioproducts, Calabasas, Calif.) in a 5% CO2 humidified atmosphere at 37° C. One hundred thousand cells/well were seeded in 24-well plates (Costar, Cambridge, Mass.). Twenty-four hours after plating, the cells were transfected with 0.05 μg DNA per well (for IP production assay) or 0.1 μg DNA per well (for saturation binding studies) using 2 μl lipofectamine in 0.25 ml OPTI-MEM containing 1% DMSO (vehicle) or 1 μg/ml of each indole, quinoline or erythromycin macrolide prepared in vehicle.
After five hours, 0.25 ml of DMEM containing 20% FCS with or without indole, quinoline or erythromycin macrolide (as indicated) was added to each well. The cells were incubated for an additional 18 hours at 37° C., then washed and fresh growth medium with (1 μg/ml) or without the therapeutic agent was added to the cells for another 28 hours at 37° C. […]
The quantification of IP production and saturation binding were determined as described previously (Huckle and Conn, Methods Enzymol. 141:149-55, 1987).
To determine the saturation binding, the cells were washed twice with warm DMEM/BSA prior to incubating with the GnRH agonist [^125I]-buserelin [D-tert-butyl-Ser^6, des-Gly^10, Pro^9, ethylamide-GnRH; specific activity, 700 μCi/μg; 230,000 cpm/0.5 ml, pH 7.4; Hoeschst-Roussel Pharmaceuticals (Somerville, N.J.); also see Marian et al., Mol. Pharmacol. 19:399-405, 1981] and nonspecific binding was measured in the presence of 1 μM GnRH (NIDDK National Hormone and Peptide Program, Bethesda, Md.). […] The sample was transferred to a glass tube and counted in a gamma counter (Packard Instruments; Downers Grove, Ill.). Specific binding was calculated by subtracting non-specific binding (binding measured in the presence of 1 μM GnRH) from total binding (no GnRH). […]

WT hGnRHR = biological target: T2, WT hGnRHR (Homo sapiens, UniProt P30968); experiment: IP production in COS-7 cells transfected with WT hGnRHR, Buserelin dose response (FIG. 13 inset); format: cell-based; settings: COS-7 cells transfected with 100 ng of WT hGnRHR
T2 construct: expressed in transfected cells; host or cells: COS-7
T2 sequence (P30968 1-328): T1 sequence (P30968 1-328 E90K) with K90E
Experimental: For tranfections, 5×10^4 COS-7 cells were plated in 0.25 ml growth medium in 48 well Costar cell culture plates. Twenty-four hours after plating, the cells were washed once with 0.5 ml OPTI-MEM (Promega, Madison, Wis.) then transfected with 100 ng total cDNA (pcDNA3.1+without insert “empty vector” was included to bring the total cDNA to 100 ng/well, unless otherwise indicated) and 1 μl lipofectamine in 0.125 ml OPTI-MEM (room temperature), according to manufacture's instructions. For co-transfection, the cells were co-transfected with WT GnRHR (5 ng/well) and empty vector or mutant GnRHR (95 ng/well) or other GPCR cDNAs, as indicated, using 1 μl Lipofectamine (Promega, Madison, Wis.) in 0.125 ml Opti-MEM. Constant amounts of Opti-MEM were achieved by the addition of sterile milli-Q H2O to the cDNA mixtures. […]
The IP production was measured 27 hours after transfection, as described in Example 1, except that following the preloading, cells were treated for 2 hours in 0.25 ml of Buserelin (100 nM), and at the end of the incubation period, the cells were frozen and thawed in the presence of 0.5 ml of 0.1 M formic acid. Data (n≧3) was analyzed with one-way ANOVA and then paired Student's t-test (SigmaStat 3.0, Jandel Scientific Software, Chicago, Ill.; P<0.05 was considered significant). […]

Row | Buserelin concentration giving maximal response on IP production (WT hGnRHR) | SMILES | restoration of function to mutant GnRHR (mutant GnRHR)
1 |  | CC[C@H]1OC(=O)[C@H](C)[C@@H](O[C@H]2C[C@@](C)(OC)[C@@H](O)[C@H](C)O2)[C@H](C)[C@@H](O[C@@H]2O[C@H](C)C[C@H](N(C)C)[C@H]2O)[C@](C)(O)C[C@@H](C)C(=O)[C@H](C)[C@@H](O)[C@]1(C)O [A-7662.0, Erythromycin A] | known not to bind to or restore function to mutant protein
2 | 10^−7 M | CCNC(=O)[C@@H]1CCCN1C(=O)[C@H](CCCNC(=N)N)NC(=O)[C@H](CC(C)C)NC(=O)[C@@H](COC(C)(C)C)NC(=O)[C@H](Cc1ccc(O)cc1)NC(=O)[C@H](CO)NC(=O)[C@H](Cc1c[nH]c2ccccc12)NC(=O)[C@H](Cc1cnc[nH]1)NC(=O)[C@@H]1CCC(=O)N1 [Buserelin, D-tert-butyl-Ser^6, des-Gly^10, Pro^9, ethylamide-GnRH] | 
3 |  | Cc1cc(C)cc(-c2[nH]c3ccc(C(C)(C)C(=O)N4CCN(C)CC4)cc3c2[C@H](C)CNCCc2ccc(C(=O)O)cc2)c1.O=C(O)C(F)(F)F [IN31b, (2S)-N-[2-(4-carboxyphenyl)ethyl]-2-[5-[1,1-dimethyl-2-(4-methylpiperazin-1-yl)-2-oxoethyl]-2-(3,5-dimethylphenyl)-1H-indol-3-yl]propan-1-aminium trifluoroacetate] | known not to bind to or restore function to mutant protein
4 |  | COc1cc2c(cc1OC)CN(C(=O)c1cc3c(OCC[C@@H]4CCCCN4)c(-c4cc(C)cc(C)c4)c(=O)[nH]c3cc1Cl)CC2.O=C(O)C(F)(F)F [Q08, (2S)-2-(2-{[7-chloro-6-[(6,7-dimethoxy-3,4-dihydroisoquinolin-2(1H)-yl)carbonyl]-3-(3,5-dimethylphenyl)-2-oxo-1,2-dihydroquinolin-4-yl]oxy}ethyl)piperidinium trifluoroacetate] | known not to bind to or restore function to mutant protein
